Data set [1] deals with Plasmodium falciparum. The data set is described as follows: Antimalarial activity against chloroquine-resistant Plasmodium falciparum Dd2 at 120 uM after 72 hrs by DAPI staining method.
The test system of a further data set is HEK293. As to the kind of experiment: Cytotoxicity against human HEK293 cells up to 120 uM after 72 hrs by Alamar blue assay. The data set is classed as cell-based. The conditions noted are these: hek293, 72 h.
For data set [2], the system named is Plasmodium falciparum. As to the kind of experiment: Antimalarial activity against chloroquine-sensitive Plasmodium falciparum 3D7 at 120 uM after 72 hrs by DAPI staining method. The data set is classed as functional.
For data set [3], the system named is Plasmodium falciparum. The data set is described as follows: Antimalarial activity against chloroquine-sensitive Plasmodium falciparum 3D7 after 72 hrs by DAPI staining method. The data set is classed as functional, organism-based. Particulars: 3D7, 72 h.
Data set [4] can be described thus: Cytotoxicity against human HEK293 cells at 120 uM after 72 hrs by Alamar blue assay. The class given is cell-based. The conditions noted are these: read-out: GI. In general terms: Alamar Blue is a resazurin reagent that responds to reducing activity.
Data set [5] concerns Plasmodium falciparum. The data set is described as follows: Antimalarial activity against chloroquine-resistant Plasmodium falciparum Dd2 after 72 hrs by DAPI staining method. The conditions noted are these: Dd2, 72 h.

Usually IC50 stands for the midpoint of a concentration-inhibition curve.

`COc1cc(O)c2c(c1O)-c1nccc(C)c1C2=O`: the Activity with Plasmodium falciparum [1] is 80%; with HEK293, “Non-toxic”; in the data set on Plasmodium falciparum [2], 87%.
As to `COc1ccc2c(c1O)-c1nccc(C)c1C2=O`, the IC50 in the data set with Plasmodium falciparum [3] was determined as 9.9 µM; with Plasmodium falciparum [5], 11.4 µM. For the same compound, in data set [4], the inhibition at 72 h, 120 µM worked out at 96%.
